Read-outs that look alike come from different tables or passages of the source.
Assays:
Format in all cases: biochemical, Penicillium citrinum
PcβGlu2 [1] = system: T1, PcβGlu2; assay: glucose release, glucose oxidase method at […] nm; conditions: 50 mM sodium acetate pH 5.0, 40 °C
T1 construct: 93 kDa SDS-PAGE, 89 kDa gel filtration (abstract 95 kDa), monomer; GH3 only tentative (MS on heterogeneous fraction)

PcβGlu1 [2] = system: T2, PcβGlu1; assay: glucose release, glucose oxidase method at […] nm; conditions: 50 mM sodium acetate pH 5.0, 40 °C
T2 construct: native secreted enzyme purified from wheat-bran culture supernatant (ammonium sulfate, phenyl sepharose); 134 kDa SDS-PAGE, 258 kDa gel filtration (abstract 241 kDa), homodimer

PcβGlu2 [3] = target: T1, PcβGlu2; assay: pNPβGlu hydrolysis, p-nitrophenol release at […] nm; conditions: substrate pNPβGlu, 50 mM sodium acetate pH 5.0, 40 °C
PcβGlu1 [4] = target: T2, PcβGlu1; assay: pNPβGlu hydrolysis, p-nitrophenol release at […] nm; conditions: substrate pNPβGlu, 50 mM sodium acetate pH 5.0, 40 °C
PcβGlu2 [5] = system: T1, PcβGlu2; assay: 4-methylumbelliferone fluorescence; conditions: 50 mM sodium acetate pH 5.0, 40 °C; substrate-inhibition model
From the text: 4-methylumbelliferone fluorescence on PcβGlu2

PcβGlu1 [6] = system: T2, PcβGlu1; assay: 4-methylumbelliferone fluorescence; conditions: 50 mM sodium acetate pH 5.0, 40 °C
From the text: 4-methylumbelliferone fluorescence on PcβGlu1

PcβGlu2 [7] = system: T1, PcβGlu2; assay: p-nitrophenol release at […] nm; conditions: 50 mM sodium acetate pH 5.0, 40 °C; substrate-inhibition model
PcβGlu1 [8] = system: T2, PcβGlu1; assay: p-nitrophenol release at […] nm; conditions: 50 mM sodium acetate pH 5.0, 40 °C
[9] = mixed-type noncompetitive, free-enzyme constant, read-out: KIE

Km (PcβGlu2 [1]; substrate-inhibition model) [µM] | Km (PcβGlu1 [2]) [µM] | SMILES | also measured
190 ± 30 | 540 ± 30 | CCCCCCCCO[C@@H]1O[C@H](CO)[C@@H](O)[C@H](O)[C@H]1O [Octyl-β-glucopyranoside] | 
 |  | OC[C@H]1OC(O)[C@H](O)[C@@H](O)[C@@H]1O (some centres unmarked) [glucose] | Ki (PcβGlu2 [3]; competitive, read-out: Ki): 880 ± 80 µM; Ki (PcβGlu1 [4]; competitive, read-out: Ki): 1890 ± 80 µM
 |  | Cc1cc(=O)oc2cc(O[C@@H]3O[C@H](CO)[C@@H](O)[C@H](O)[C@H]3O)ccc12 [MUβGlu] | Km (PcβGlu2 [5]): 14 ± 2 µM; Km (PcβGlu1 [6]): 240 ± 10 µM
 | 1700 ± 100 | OC[C@H]1O[C@@H](O[C@H]2[C@H](O)[C@@H](O)C(O)O[C@@H]2CO)[C@H](O)[C@@H](O)[C@@H]1O (some centres unmarked) [cellobiose] | Ki (PcβGlu2 [3]; [9]): 3740 ± 70 µM; Km (PcβGlu2 [1]; Michaelis-Menten): 640 ± 60 µM; Ki (PcβGlu1 [4]; [9]): 10700 ± 100 µM
 | 380 ± 40 | OC[C@H]1O[C@@H](OC[C@H]2OC(O)[C@H](O)[C@@H](O)[C@@H]2O)[C@H](O)[C@@H](O)[C@@H]1O (some centres unmarked) [Gentiobiose] | Km (PcβGlu2 [1]; Michaelis-Menten): 620 ± 70 µM
70 ± 10 | 250 ± 20 | OC[C@H]1O[C@@H](O[C@H]2[C@H](O)[C@@H](O)[C@H](O[C@H]3[C@H](O)[C@@H](O)[C@H](O[C@H]4[C@H](O)[C@@H](O)[C@H](O[C@H]5[C@H](O)[C@@H](O)C(O)O[C@@H]5CO)O[C@@H]4CO)O[C@@H]3CO)O[C@@H]2CO)[C@H](O)[C@@H](O)[C@@H]1O (some centres unmarked) [Cellopentaose] | 
280 ± 70 | 420 ± 50 | OC[C@H]1O[C@@H](O[C@H]2[C@H](O)[C@@H](O)[C@H](O[C@H]3[C@H](O)[C@@H](O)[C@H](O[C@H]4[C@H](O)[C@@H](O)C(O)O[C@@H]4CO)O[C@@H]3CO)O[C@@H]2CO)[C@H](O)[C@@H](O)[C@@H]1O (some centres unmarked) [Cellotetraose] | 
420 ± 30 | 330 ± 40 | OC[C@H]1O[C@@H](O[C@H]2[C@H](O)[C@@H](CO)OC(O)[C@@H]2O)[C@H](O)[C@@H](O)[C@@H]1O (some centres unmarked) [Laminaribiose] | 
 |  | O=[N+]([O-])c1ccc(O[C@@H]2O[C@H](CO)[C@@H](O)[C@H](O)[C@H]2O)cc1 [pNPβGlu] | Km (PcβGlu2 [7]): 72 ± 7 µM; Km (PcβGlu1 [8]): 280 ± 10 µM

Reference: paper PMC6100729, “Penicillium citrinum UFV1 β-glucosidases: purification, characterization, and application for biomass saccharification” (Biotechnology for Biofuels, 2018)
